Experiments:
[1] = system: normal NK cells expanded with K562-aAPC; test: drug sensitivity score (DSS) (DSS units); higher = more sensitive; extreme values may be limits of the assay; details: 72 h; IL-2 2.5 ng/mL
Protocol: (§1)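 Drug sensitivity and resistance testing on K562-aAPC-expanded normal NK cells: 5 concentrations (10-fold steps over a 10,000-fold range), 72 h at 37 °C, viability by CellTiter-Glo normalised to DMSO and benzethonium chloride controls; DSS from the fitted curve.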

KAI3 (IL-2 2.5 ng/mL) [2] = test: percent inhibition of viability; higher = more inhibition; details: 72 h
IMC-1 (IL-2 20 ng/mL) [3] = test: as above; details: 72 h
KHYG-1 (IL-2 2.5 ng/mL) [4] = test: as above; details: 72 h
DERL-7 (IL-2 2.5 ng/mL) [5] = test: as above; details: 72 h
[6] = system: normal primary NK cells, pool 1 (3 donors) (IL-2 2.5 ng/mL); test: as above; details: 72 h
NK-92 (IL-2 2.5 ng/mL) [7] = test: as above; details: 72 h
NKL (IL-2 2.5 ng/mL) [8] = test: as above; details: 72 h
YT (IL-2 2.5 ng/mL) [9] = test: as above; details: 72 h
[10] = system: normal primary NK cells, pool 3 (3 donors) (IL-2 2.5 ng/mL); test: as above; details: 72 h
SNK-6 (IL-2 2.5 ng/mL) [11] = test: as above; details: 72 h
[12] = system: normal primary NK cells, pool 1 (3 donors), resting (IL-2 0 ng/mL); test: as above; details: 72 h
[13] = system: normal primary NK cells, pool 2 (3 donors) (IL-2 2.5 ng/mL); test: as above; details: 72 h
NK-YS (IL-2 2.5 ng/mL) [14] = test: as above; details: 72 h
KAI3 (IL-2 2.5 ng/mL) [15] = test: drug sensitivity score (DSS) (DSS units); higher = more sensitive; extreme values may be limits of the assay; details: 72 h
IMC-1 (IL-2 20 ng/mL) [16] = test: as above; details: 72 h
KHYG-1 (IL-2 2.5 ng/mL) [17] = test: as above; details: 72 h
DERL-7 (IL-2 2.5 ng/mL) [18] = test: as above; details: 72 h
[19] = system: normal primary NK cells, pool 1 (3 donors) (IL-2 2.5 ng/mL); test: as above; details: 72 h
NK-92 (IL-2 2.5 ng/mL) [20] = test: as above; details: 72 h
NKL (IL-2 2.5 ng/mL) [21] = test: as above; details: 72 h
YT (IL-2 2.5 ng/mL) [22] = test: as above; details: 72 h
[23] = system: normal primary NK cells, pool 3 (3 donors) (IL-2 2.5 ng/mL); test: as above; details: 72 h
SNK-6 (IL-2 2.5 ng/mL) [24] = test: as above; details: 72 h
[25] = system: normal primary NK cells, pool 1 (3 donors), resting (IL-2 0 ng/mL); test: as above; details: 72 h
[26] = system: normal primary NK cells, pool 2 (3 donors) (IL-2 2.5 ng/mL); test: as above; details: 72 h
NK-YS (IL-2 2.5 ng/mL) [27] = test: as above; details: 72 h
[28] = system: normal NK cells expanded with K562-aAPC; test: percent inhibition of viability; higher = more inhibition; details: 72 h, IL-2 2.5 ng/mL
Protocol: as §1

C[C@@H](Oc1ccc2[nH]nc(/C=C/c3cnn(CCO)c3)c2c1)c1c(Cl)cncc1Cl (max concentration tested 1000 nM)
Details	drug sensitivity score
DERL-7 (IL-2 2.5 ng/mL) [18]	11.6
IMC-1 (IL-2 20 ng/mL) [16]	8.86
KAI3 (IL-2 2.5 ng/mL) [15]	17.6
KHYG-1 (IL-2 2.5 ng/mL) [17]	21.6
NK-92 (IL-2 2.5 ng/mL) [20]	12.9
NK-YS (IL-2 2.5 ng/mL) [27]	12.9
NKL (IL-2 2.5 ng/mL) [21]	19.4
SNK-6 (IL-2 2.5 ng/mL) [24]	20.8
YT (IL-2 2.5 ng/mL) [22]	6.34
[1]	20.3
[19]	11.4
[23]	12.7
[25]	0.82
[26]	15.3

percent inhibition of viability [%]
Details	0.1 nM	1 nM	10 nM	100 nM	1000 nM
DERL-7 (IL-2 2.5 ng/mL) [5]	-4.25	-1.44	12.1	50	100
IMC-1 (IL-2 20 ng/mL) [3]	2.17	-5.43	-8.61	21.8	98.1
KAI3 (IL-2 2.5 ng/mL) [2]	2.24	4.1	25	79.6	90.2
KHYG-1 (IL-2 2.5 ng/mL) [4]	-1.37	-1.77	23.3	101	98.7
NK-92 (IL-2 2.5 ng/mL) [7]	-7.71	-11	4.63	65.8	84.5
NK-YS (IL-2 2.5 ng/mL) [14]	-6.71	-5.42	10.9	60.3	93
NKL (IL-2 2.5 ng/mL) [8]	-5.85	0.25	37.2	79.9	84.6
SNK-6 (IL-2 2.5 ng/mL) [11]	-12	0.34	23.3	95	92.3
YT (IL-2 2.5 ng/mL) [9]	-2.34	-5.3	-2.2	9.63	85.6
[6]	-3.85	-11	2.43	60.1	72.1
[10]	-11.8	-16.6	7.47	63.4	69.5
[12]	-1.49	-11.6	-11.3	13.6	13.4
[13]	-12.2	-5.79	27.6	62.9	71.7
[28]	-0.71	-1.93	22.3	94.3	97.8

O=C(NOC[C@H](O)CO)c1ccc(F)c(F)c1Nc1ccc(I)cc1F (max concentration tested 1000 nM)
Details	drug sensitivity score
DERL-7 (IL-2 2.5 ng/mL) [18]	23.1
IMC-1 (IL-2 20 ng/mL) [16]	0
KAI3 (IL-2 2.5 ng/mL) [15]	3.26
KHYG-1 (IL-2 2.5 ng/mL) [17]	9.09
NK-92 (IL-2 2.5 ng/mL) [20]	0
NK-YS (IL-2 2.5 ng/mL) [27]	0
NKL (IL-2 2.5 ng/mL) [21]	11.1
SNK-6 (IL-2 2.5 ng/mL) [24]	0
YT (IL-2 2.5 ng/mL) [22]	0
[1]	0
[19]	1.95
[23]	0
[25]	0
[26]	0

percent inhibition of viability [%]
Details	0.1 nM	1 nM	10 nM	100 nM	1000 nM
DERL-7 (IL-2 2.5 ng/mL) [5]	102	5.21	16.2	22.4	38.7
IMC-1 (IL-2 20 ng/mL) [3]	-4.97	0.45	-4.28	-5.8	-9.8
KAI3 (IL-2 2.5 ng/mL) [2]	-0.87	5.85	13.8	15.7	22.6
KHYG-1 (IL-2 2.5 ng/mL) [4]	-3.39	0.89	14.1	40.9	55
NK-92 (IL-2 2.5 ng/mL) [7]	-5.72	-7.22	-10.3	-30.8	-12.8
NK-YS (IL-2 2.5 ng/mL) [14]	-5.52	-3.02	-1.28	2.92	8.84
NKL (IL-2 2.5 ng/mL) [8]	-14.2	-2.12	27.4	41.5	59.1
SNK-6 (IL-2 2.5 ng/mL) [11]	4.76	22	-8.5	-17.1	-28.3
YT (IL-2 2.5 ng/mL) [9]	-2.67	-1.04	-2.4	1.31	4.12
[6]	-2.22	-8.03	2.53	15.6	18
[10]	-7.16	-7.47	-4.48	-8.83	-4.17
[12]	2.14	0.69	1.05	6.05	7
[13]	-3.98	-4.69	-0.06	-5.3	5.01
[28]	-1.9	-4.6	-6.15	-9.26	-3.18

OCCn1cc(-c2cnc3nnn(Cc4ccc5ncccc5c4)c3n2)cn1 (max concentration tested 2500 nM)
Details	drug sensitivity score
DERL-7 (IL-2 2.5 ng/mL) [18]	0
IMC-1 (IL-2 20 ng/mL) [16]	0
KAI3 (IL-2 2.5 ng/mL) [15]	0.81
KHYG-1 (IL-2 2.5 ng/mL) [17]	0
NK-92 (IL-2 2.5 ng/mL) [20]	3.17
NK-YS (IL-2 2.5 ng/mL) [27]	0.5
NKL (IL-2 2.5 ng/mL) [21]	3.7
SNK-6 (IL-2 2.5 ng/mL) [24]	0
YT (IL-2 2.5 ng/mL) [22]	0.06
[1]	0.06
[19]	0.34
[23]	0
[25]	0.02
[26]	0

percent inhibition of viability [%]
Details	0.25 nM	2.5 nM	25 nM	250 nM	2500 nM
DERL-7 (IL-2 2.5 ng/mL) [5]	-0.9	-0.84	0.34	-3	-8.26
IMC-1 (IL-2 20 ng/mL) [3]	-3.49	3.05	-2.66	5.69	6.58
KAI3 (IL-2 2.5 ng/mL) [2]	-0.76	-5.72	5.28	8.13	18.2
KHYG-1 (IL-2 2.5 ng/mL) [4]	-6.94	-4.08	-4.27	1.49	7.29
NK-92 (IL-2 2.5 ng/mL) [7]	-3.39	13.7	-1.59	11.9	33.2
NK-YS (IL-2 2.5 ng/mL) [14]	-3.62	-4.61	-4.57	1.28	16.9
NKL (IL-2 2.5 ng/mL) [8]	-0.17	5.36	16.3	12	17.6
SNK-6 (IL-2 2.5 ng/mL) [11]	-14.8	-17.6	-15.8	-7.55	1.66
YT (IL-2 2.5 ng/mL) [9]	-6.67	-5.28	-6.34	-0.92	12.8
[6]	-4.03	5.55	18.1	6.24	10.1
[10]	-4.09	3.45	7.9	-5.94	7.18
[12]	-7.9	6.66	4.48	7.02	11.4
[13]	-2.43	3.77	5.1	-2.16	4.71
[28]	-1.81	-5.59	-1.09	4.36	10.7

Reference: the supplement of paper PMC5908809
